The record followed here is US11453683B1, “KRas G12D inhibitors” (Mirati Therapeutics, Inc., priority 2019, dated 2022).

In general, IC50 refers to the concentration needed to halve the response being measured. A higher IC50 goes with weaker potency.

The test system of the assay is KRas G12D-mediated phosphorylation of ERK. In words: Inhibition of KRas G12D-mediated phosphorylation of ERK in AGS cells. The class given is cell-based. The note with it: Homo sapiens; AGS cells expressing G12D, 3 hours, phospho-ERK normalized to GAPDH. An outline of the steps:
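In-cell Western: p-ERK Thr202/Tyr204 signal over GAPDH, as % of DMSO control, with IC50 from a 4-parameter curve. AGS cells seeded 40,000/well for 12-14 h, exposed to compound 3 h at 0.5% DMSO final, then formaldehyde-fixed and methanol-permeabilized.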
Molecule `Cc1cccc2cccc(-c3ncc4c(N5C[C@H]6CC[C@@H](C5)N6)nc(OC[C@@H]5CCCN5C)nc4c3F)c12` [Example 15, 4-((1R,5S)-3,8-diazabicyclo[3.2.1]octan-3-yl)-8-fluoro-7-(8-methylnaphthalen-1-yl)-2-(((S)-1-methylpyrrolidin-2-yl)methoxy)pyrido[4,3-d]pyrimidine] registered an IC50 of over 16.7 µM.

In the case of `C#Cc1c(F)ccc2cc(O)cc(-c3ncc4c(N5C[C@H]6CC[C@@H](C5)N6)nc(OCC56CCCN5CCC6)nc4c3F)c12` [Example 232, 4-(4-((1R,5S)-3,8-diazabicyclo[3.2.1]octan-3-yl)-8-fluoro-2-((tetrahydro-1H-pyrrolizin-7a(5H)-yl)methoxy)pyrido[4,3-d]pyrimidin-7-yl)-5-ethynyl-6-fluoronaphthalen-2-ol], the IC50 was determined as 0.0152 µM.

`Cc1ccc2[nH]ncc2c1-c1ncc2c(N3C[C@H]4CC[C@@H](C3)N4)nc(OCC34CCCN3CCC4)nc2c1F` [Example 332, 4-((1R,5S)-3,8-diazabicyclo[3.2.1]octan-3-yl)-8-fluoro-7-(5-methyl-1H-indazol-4-yl)-2-((tetrahydro-1H-pyrrolizin-7a(5H)-yl)methoxy)pyrido[4,3-d]pyrimidine] displayed an IC50 of over 16.7 µM.

For the molecule `Fc1c(-c2cccc(Cl)c2C2CC2)ncc2c(N3C[C@H]4CC[C@@H](C3)N4)nc(OCC34CCCN3CCC4)nc12` [Example 322, 4-((1R,5S)-3,8-diazabicyclo[3.2.1]octan-3-yl)-7-(3-chloro-2-cyclopropylphenyl)-8-fluoro-2-((tetrahydro-1H-pyrrolizin-7a(5H)-yl)methoxy)pyrido[4,3-d]pyrimidine], the IC50 was 0.665 µM.

Take `Nc1ccc(CCOc2nc(N3C[C@H]4CC[C@@H](C3)N4)c3cnc(-c4cccc5cccc(Cl)c45)c(F)c3n2)cn1` [Example 141, 5-(2-((4-((1R,5S)-3,8-diazabicyclo[3.2.1]octan-3-yl)-7-(8-chloronaphthalen-1-yl)-8-fluoropyrido[4,3-d]pyrimidin-2-yl)oxy)ethyl)pyridin-2-amine]: the IC50 was over 16.7 µM.

`C#CCc1ccc(O)cc1-c1ncc2c(N3C[C@H]4CC[C@@H](C3)N4)nc(OCC34CCCN3CCC4)nc2c1F` [Example 279, 3-(4-((1R,5S)-3,8-diazabicyclo[3.2.1]octan-3-yl)-8-fluoro-2-((hexahydro-1H-pyrrolizin-7a-yl)methoxy)pyrido[4,3-d]pyrimidin-7-yl)-4-(prop-2-yn-1-yl)phenol] displayed an IC50 of 7.4 µM.

Consider `CN(C)CCOc1nc(N2C[C@H]3CC[C@@H](C2)N3)c2cnc(-c3cc(O)cc4ccccc34)c(F)c2n1` [Example 18, 4-(4-((1R,5S)-3,8-diazabicyclo[3.2.1]octan-3-yl)-2-(2-(dimethylamino)ethoxy)-8-fluoropyrido[4,3-d]pyrimidin-7-yl)naphthalen-2-ol], for which it took 3.74 µM to reach half-maximal inhibition (IC50).

`CC(C)c1ccc(O)cc1-c1ncc2c(N3CC4CCC(C3)N4)nc(OC[C@@]34CCCN3C[C@H](F)C4)nc2c1F` (stereo in doubt) [Example 399, 3-(4-((1R,5S)-3,8-diazabicyclo[3.2.1]octan-3-yl)-8-fluoro-2-((2-fluorotetrahydro-1H-pyrrolizin-7a(5H)-yl)methoxy)pyrido[4,3-d]pyrimidin-7-yl)-4-isopropylphenol] came in with an IC50 of 0.51 µM.

`COC[C@H]1CC[C@@]2(COc3nc(N4CC5CCC(C4)N5)c4cnc(-c5cc(O)cc6ccccc56)c(F)c4n3)CCCN12` (stereo in doubt) [Example 389, 4-(4-((1R,5S)-3,8-diazabicyclo[3.2.1]octan-3-yl)-8-fluoro-2-((3-(methoxymethyl)tetrahydro-1H-pyrrolizin-7a(5H)-yl)methoxy)pyrido[4,3-d]pyrimidin-7-yl)naphthalen-2-ol]: the IC50 amounted to 0.781 µM.

`CC1(N)CN(c2nc(N3C[C@H]4CC[C@@H](C3)N4)c3cnc(-c4cc(O)cc5ccccc45)c(F)c3n2)C1` [Example 124, 4-(2-(3-amino-3-methylazetidin-1-yl)-4-((1R,5S)-3,8-diazabicyclo[3.2.1]octan-3-yl)-8-fluoropyrido[4,3-d]pyrimidin-7-yl)naphthalen-2-ol] yielded a concentration for half-maximal inhibition (IC50) of 11.1 µM.
